Measured values as given in ChEMBL document CHEMBL5380814, “Targeting Receptor-Interacting Protein Kinase 1 by Novel Benzothiazole Derivatives: Treatment of Acute Lung Injury through the Necroptosis Pathway” (J Med Chem, 2023).
The source made the active and inactive calls. The rule behind the calls is not given here.

Columns and labels:
Mus musculus [1] = experiment: In vivo anti-necrotptic activity in mTNFalpha induced C57BL/6J SIRS mouse model assessed as survival rate pretreated at 10 mg/kg, po for 1 hr followed by mTNFalpha/Z-VAD-FMK administration measured after 40 mins relative to control; format: functional; details: time 100 min, 1.667 h
HT-29 [2] = experiment: (§1) Anti-necroptotic activity in human HT-29 cells assessed as protection against human TNFalpha/Smac mimetic/Z-VAD-FMK induced necroptosis preincubated with compound at 50 nM for 16 to 24 hrs followed by TSZ stimulation for 12 hrs measured by cell-titre glo luminescent cell viability assay relative to control; format: functional; details: time 28-36 hrs
HT-29 [3] = experiment: Cytotoxicity against human HT-29 cells incubated at 100 uM for 16 to 24 hrs measured by cell-titre glo luminescent cell viability assay; format: functional, cell-based; details: time 16-24 hrs
Mus musculus [4] = experiment: In vivo anti-necrotoptic activity in NNK induced induced C57BL/6J ALI mouse model assessed as reduction in RIPK1 phosphorylation pretreated at 100 mg/kg, ip for 1 hr followed by NNK administration; format: functional; design: scale not given: the % may be the effect or the level left
Mus musculus [5] = experiment: In vivo anti-inflammatory activity in NNK induced induced C57BL/6J ALI mouse model assessed as decrease in bronchoalveolar lavage fluid (BALF) IL-6 level pretreated at 25 to 100 mg/kg, ip for 1 hr followed by NNK administration; format: functional, organism-based; details: dose 25-100 mg/kg
Mus musculus [6] = experiment: In vivo anti-inflammatory activity in NNK induced induced C57BL/6J ALI mouse model assessed as decrease in bronchoalveolar lavage fluid (BALF) TNF-alpha level pretreated at 25 to 100 mg/kg, ip for 1 hr followed by NNK administration; format: functional, organism-based; details: dose 25-100 mg/kg
Mus musculus [7] = experiment: In vivo anti-inflammatory activity in NNK induced induced C57BL/6J ALI mouse model assessed as decrease in inflammatory cell infiltration pretreated at 25 to 100 mg/kg, ip for 1 hr followed by NNK administration by HE staining analysis; format: functional, organism-based; details: dose 25-100 mg/kg
Mus musculus [8] = experiment: In vivo anti-necrotptic activity in mTNFalpha induced C57BL/6J SIRS mouse model assessed as survival rate pretreated at 20 mg/kg, po for 1 hr followed by mTNFalpha/Z-VAD-FMK administration measured after 40 mins relative to control; format: functional; details: time 100 min, 1.667 h
Mus musculus [9] = experiment: In vivo anti-necrotptic activity in mTNFalpha induced C57BL/6J SIRS mouse model assessed as reduction in serum IL-1beta level pretreated at 5 to 20 mg/kg, po for 1 hr followed by mTNFalpha/Z-VAD-FMK administration measured after 3 hrs by ELISA analysis; format: functional, organism-based; details: dose 5-20 mg/kg, time 4.0 hrs
[10] = biological target: Receptor-interacting serine/threonine-protein kinase 3 (Homo sapiens, UniProt Q9Y572); experiment: Inhibition of RIPK3 phosphorylation in TSZ-induced human HT-29 cells assessed as blocking of TSZ-induced necrosome formation at 0.5 uM pretreated with compound for 6 hrs followed by TSZ stimulation for 6 hrs measured by Western analysis; format: cell-based; details: time 12.0 hrs
Mus musculus [11] = experiment: In vivo anti-inflammatory activity in NNK induced induced C57BL/6J ALI mouse model assessed as lung injury score pretreated at 25 mg/kg, ip for 1 hr followed by NNK administration relative to disease model (reference value: 5.7 +/- 0.5); format: functional
Mus musculus [12] = experiment: In vivo anti-inflammatory activity in NNK induced induced C57BL/6J ALI mouse model assessed as lung injury score pretreated at 50 mg/kg, ip for 1 hr followed by NNK administration relative to disease model (reference value: 5.7 +/- 0.5); format: functional
Mus musculus [13] = experiment: In vivo anti-inflammatory activity in NNK induced induced C57BL/6J ALI mouse model assessed as less congestion in lung pretreated at 25 to 100 mg/kg, ip for 1 hr followed by NNK administration by HE staining analysis; format: functional, organism-based; details: dose 25-100 mg/kg
HT-29 [14] = experiment: Anti-necroptotic activity in TSZ induced human HT-29 cells assessed as inhibition of necrosome formation preincubated with compound at 1 uM for 6 hrs followed by TSZ stimulation for 6 hrs measured by cell-titre glo luminescent cell viability assay; format: functional, cell-based; details: time 12.0 hrs
HT-29 [15] = experiment: as §1, with “TNFalpha/cycloheximide/Z-VAD-FMK” for “TNFalpha/Smac mimetic/Z-VAD-FMK”, “0.3 uM” for “50 nM”, “TCZ” for “TSZ”, “16” for “12”; format: functional; details: time 32-40 hrs
[16] = biological target: T1, Mixed lineage kinase domain-like protein (Homo sapiens) (UniProt Q8NB16); experiment: Inhibition of MLKL phosphorylation in TSZ-induced human HT-29 cells assessed as blocking of TSZ-induced necrosome formation at 1 uM pretreated with compound for 0 to 6 hrs followed by TSZ stimulation for 6 hrs measured by Western analysis; format: cell-based; details: time 6-12 hrs
T1 sequence (whole entry): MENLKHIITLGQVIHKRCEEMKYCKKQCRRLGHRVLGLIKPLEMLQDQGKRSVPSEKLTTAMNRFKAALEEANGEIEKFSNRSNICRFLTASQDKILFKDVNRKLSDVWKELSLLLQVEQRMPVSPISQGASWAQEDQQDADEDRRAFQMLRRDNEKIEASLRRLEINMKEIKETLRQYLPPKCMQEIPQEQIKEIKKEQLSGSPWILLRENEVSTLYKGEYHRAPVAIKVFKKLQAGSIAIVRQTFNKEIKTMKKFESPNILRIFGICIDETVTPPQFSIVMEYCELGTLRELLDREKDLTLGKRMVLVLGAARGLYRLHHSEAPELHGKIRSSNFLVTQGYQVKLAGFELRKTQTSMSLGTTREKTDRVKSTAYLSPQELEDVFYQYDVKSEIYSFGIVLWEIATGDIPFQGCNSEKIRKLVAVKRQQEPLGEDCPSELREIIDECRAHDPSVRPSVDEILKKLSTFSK

HT-29 [17] = experiment: Anti-necroptotic activity in human HT-29 cells assessed as inhibition of human TNFalpha/Smac mimetic/Z-VAD-FMK induced necroptosis preincubated with compound for 16 to 24 hrs followed by TSZ stimulation for 12 hrs measured by cell-titre glo luminescent cell viability assay; format: functional, cell-based
Mus musculus [18] = experiment: In vivo anti-inflammatory activity in NNK induced induced C57BL/6J ALI mouse model assessed as decrease in wet lung weight pretreated at 25 to 100 mg/kg, ip for 1 hr followed by NNK administration relative to disease model; format: functional, organism-based; details: dose 25-100 mg/kg
Mus musculus [19] = experiment: In vivo anti-necrotptic activity in mTNFalpha induced C57BL/6J SIRS mouse model assessed as protection from body temperature loss pretreated at 20 mg/kg, po for 1 hr followed by mTNFalpha/Z-VAD-FMK administration measured after 45 mins by electric thermometer; format: functional, organism-based; details: time 105.0 min
HT-29 [20] = experiment: Anti-necroptotic activity in human HT-29 cells assessed as inhibition of human TNFalpha/Smac mimetic/Z-VAD-FMK induced necroptosis preincubated with compound followed by TSZ stimulation for 12 hrs; format: functional, cell-based
HT-29 [21] = experiment: Cytotoxicity against human HT-29 cells incubated for 16 to 24 hrs measured by cell-titre glo luminescent cell viability assay; format: functional; details: time 16-24 hrs
Mus musculus [22] = experiment: In vivo anti-necrotptic activity in mTNFalpha induced C57BL/6J SIRS mouse model assessed as protection from body temperature loss pretreated at 10 mg/kg, po for 1 hr followed by mTNFalpha/Z-VAD-FMK administration measured after 45 mins by electric thermometer; format: functional, organism-based; details: time 105.0 min
Mus musculus [23] = experiment: In vivo anti-necrotptic activity in mTNFalpha induced C57BL/6J SIRS mouse model assessed as reduction in serum IL-6 level pretreated at 5 to 20 mg/kg, po for 1 hr followed by mTNFalpha/Z-VAD-FMK administration measured after 3 hrs by ELISA analysis; format: functional, organism-based; details: dose 5-20 mg/kg, time 4.0 hrs

Receptor-interacting serine/threonine-protein kinase 3, sequence (Q9Y572 whole entry, looked up): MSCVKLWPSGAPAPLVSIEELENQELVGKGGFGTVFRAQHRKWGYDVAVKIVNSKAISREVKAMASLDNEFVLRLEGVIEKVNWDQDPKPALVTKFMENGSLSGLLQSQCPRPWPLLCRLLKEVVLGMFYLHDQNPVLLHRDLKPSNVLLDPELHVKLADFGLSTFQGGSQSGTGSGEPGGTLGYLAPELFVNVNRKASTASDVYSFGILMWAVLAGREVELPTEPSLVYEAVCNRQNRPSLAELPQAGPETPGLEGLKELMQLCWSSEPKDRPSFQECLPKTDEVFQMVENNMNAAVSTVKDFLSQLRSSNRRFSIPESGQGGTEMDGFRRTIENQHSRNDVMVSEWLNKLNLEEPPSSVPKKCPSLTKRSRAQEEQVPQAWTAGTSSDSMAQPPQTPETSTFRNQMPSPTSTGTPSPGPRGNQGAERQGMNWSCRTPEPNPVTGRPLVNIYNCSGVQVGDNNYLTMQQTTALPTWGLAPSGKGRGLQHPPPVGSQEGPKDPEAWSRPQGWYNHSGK

With `CCS(=O)(=O)NC1CCC(C(=O)Nc2nc3cc(F)c(Oc4ccc(F)c(NC(=O)Cc5cccc(C(F)(F)F)c5)c4)cc3s2)CC1` (stereo not drawn) the Activity (Mus musculus [1]) was 90%, the Activity (HT-29 [2]) was 100% and the Activity (HT-29 [3]) was “Active”. The Activity (Mus musculus [4]) was 100%, the Activity (Mus musculus [5]) was “Active” and the Activity (Mus musculus [6]) was “Active”. The Activity (Mus musculus [7]) was “Active”, the Activity (Mus musculus [8]) was 100% and the Activity (Mus musculus [9]) was “Active”. The inhibition [10] was “Active”, the Activity (Mus musculus [11]) was 4.3 and the Activity (Mus musculus [12]) was 3.3. For the same molecule, the Activity (Mus musculus [13]) was “Active”, the Activity (HT-29 [14]) was “Active” and the Activity (HT-29 [15]) was over 50%. For the same molecule, the inhibition [16] was “Active”, the EC50 (HT-29 [17]) was 22.4 nM and the Activity (Mus musculus [18]) was “Active”. For the same molecule, the Activity (Mus musculus [19]) was “Active”, the Activity (HT-29 [20]) was “inactive” and the CC50 (HT-29 [21]) was over 100000 nM. The Activity (Mus musculus [22]) was “Active” and the Activity (Mus musculus [23]) was “Active”.
